Laboratory results published in PubChem BioAssay (NCI).
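Results reflect a 48-hour exposure of cells in 96-well plates to compound at five concentrations. TGI: concentration producing complete growth inhibition.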

Tests used:
Test in all cases: NCI anticancer screen, dose series, 48 h
SW-620 colon = tested on: SW-620 colon
HS 578T breast = tested on: HS 578T breast
MDA-MB-435 = tested on: MDA-MB-435
T-47D breast = tested on: T-47D breast
K-562 leukemia = tested on: K-562 leukemia
SF-539 CNS = tested on: SF-539 CNS
SF-268 CNS = tested on: SF-268 CNS
SF-295 CNS = tested on: SF-295 CNS
KM12 colon = tested on: KM12 colon
HCC-2998 colon = tested on: HCC-2998 colon
CAKI-1 renal = tested on: CAKI-1 renal
DU-145 prostate = tested on: DU-145 prostate
HT29 colon = tested on: HT29 colon
COLO 205 colon = tested on: COLO 205 colon
HOP-62 NSCLC = tested on: HOP-62 NSCLC
UACC-62 melanoma = tested on: UACC-62 melanoma
NCI/ADR-RES ovarian = tested on: NCI/ADR-RES ovarian
HOP-92 NSCLC = tested on: HOP-92 NSCLC
HCT-15 colon = tested on: HCT-15 colon
PC-3 prostate = tested on: PC-3 prostate
NCI-H460 lung = tested on: NCI-H460 lung
M14 melanoma = tested on: M14 melanoma
OVCAR-4 ovarian = tested on: OVCAR-4 ovarian
UO-31 renal = tested on: UO-31 renal
OVCAR-5 ovarian = tested on: OVCAR-5 ovarian
A498 renal = tested on: A498 renal
SK-MEL-2 melanoma = tested on: SK-MEL-2 melanoma
OVCAR-3 ovarian = tested on: OVCAR-3 ovarian
A549 NSCLC = tested on: A549 NSCLC
SK-MEL-28 melanoma = tested on: SK-MEL-28 melanoma
MALME-3M melanoma = tested on: MALME-3M melanoma
MCF7 breast = tested on: MCF7 breast
HL-60(TB) leukemia = tested on: HL-60(TB) leukemia
U251 CNS = tested on: U251 CNS
RPMI-8226 leukemia = tested on: RPMI-8226 leukemia
BT-549 breast = tested on: BT-549 breast
UACC-257 melanoma = tested on: UACC-257 melanoma
CCRF-CEM leukemia = tested on: CCRF-CEM leukemia
HCT-116 colon = tested on: HCT-116 colon
OVCAR-8 ovarian = tested on: OVCAR-8 ovarian
SR leukemia = tested on: SR leukemia
LOX IMVI melanoma = tested on: LOX IMVI melanoma
SNB-75 CNS = tested on: SNB-75 CNS
EKVX NSCLC = tested on: EKVX NSCLC
ACHN renal = tested on: ACHN renal
MDA-MB-231 breast = tested on: MDA-MB-231 breast
RXF 393 renal = tested on: RXF 393 renal
SK-OV-3 ovarian = tested on: SK-OV-3 ovarian
NCI-H23 lung = tested on: NCI-H23 lung
MOLT-4 leukemia = tested on: MOLT-4 leukemia
NCI-H522 lung = tested on: NCI-H522 lung
SN12C renal = tested on: SN12C renal
786-0 renal = tested on: 786-0 renal
MDA-N = tested on: MDA-N
TK-10 renal = tested on: TK-10 renal
IGROV1 ovarian = tested on: IGROV1 ovarian
SNB-19 CNS = tested on: SNB-19 CNS
SK-MEL-5 melanoma = tested on: SK-MEL-5 melanoma
NCI-H226 lung = tested on: NCI-H226 lung

O=c1[nH]c(=S)[nH]cc1CN1CCOCC1
TGI (SW-620 colon): > 100 µM
TGI (HS 578T breast): > 100 µM
TGI (MDA-MB-435): > 100 µM
TGI (T-47D breast): > 100 µM
TGI (K-562 leukemia): > 100 µM
TGI (SF-539 CNS): > 100 µM
TGI (SF-268 CNS): > 100 µM
TGI (SF-295 CNS): > 100 µM
TGI (KM12 colon): > 100 µM
TGI (HCC-2998 colon): > 100 µM
TGI (CAKI-1 renal): > 100 µM
TGI (DU-145 prostate): > 100 µM
TGI (HT29 colon): > 100 µM
TGI (COLO 205 colon): > 100 µM
TGI (HOP-62 NSCLC): > 100 µM
TGI (UACC-62 melanoma): > 100000 nM
TGI (NCI/ADR-RES ovarian): > 100 µM
TGI (HOP-92 NSCLC): > 100 µM
TGI (HCT-15 colon): > 100 µM
TGI (PC-3 prostate): > 100 µM
TGI (NCI-H460 lung): > 100 µM
TGI (M14 melanoma): > 100 µM
TGI (OVCAR-4 ovarian): > 100 µM
TGI (UO-31 renal): > 100 µM
TGI (OVCAR-5 ovarian): > 100 µM
TGI (A498 renal): > 100 µM
TGI (SK-MEL-2 melanoma): > 100 µM
TGI (OVCAR-3 ovarian): > 100 µM
TGI (A549 NSCLC): > 100 µM
TGI (SK-MEL-28 melanoma): > 100 µM
TGI (MALME-3M melanoma): > 100 µM
TGI (MCF7 breast): > 100 µM
TGI (HL-60(TB) leukemia): > 100 µM
TGI (U251 CNS): > 100 µM
TGI (RPMI-8226 leukemia): > 100 µM
TGI (BT-549 breast): > 100 µM
TGI (UACC-257 melanoma): > 100 µM
TGI (CCRF-CEM leukemia): > 100 µM
TGI (HCT-116 colon): > 100 µM
TGI (OVCAR-8 ovarian): > 100 µM
TGI (SR leukemia): > 100 µM
TGI (LOX IMVI melanoma): > 100 µM
TGI (SNB-75 CNS): > 100 µM
TGI (EKVX NSCLC): > 100 µM
TGI (ACHN renal): > 100 µM
TGI (MDA-MB-231 breast): > 100 µM
TGI (RXF 393 renal): > 100 µM
TGI (SK-OV-3 ovarian): > 100 µM
TGI (NCI-H23 lung): > 100 µM
TGI (MOLT-4 leukemia): > 100 µM
TGI (NCI-H522 lung): > 100 µM
TGI (SN12C renal): > 100 µM
TGI (786-0 renal): > 100 µM
TGI (MDA-N): > 100 µM
TGI (TK-10 renal): > 100 µM
TGI (IGROV1 ovarian): > 100 µM
TGI (SNB-19 CNS): > 100 µM
TGI (SK-MEL-5 melanoma): > 100 µM

CN1CCN(c2cc3[nH]c4cc(O)cc(O)c4c(=O)c3cc2N)CC1
TGI (SW-620 colon): 65.3 µM
TGI (HS 578T breast): > 100 µM
TGI (MDA-MB-435): 42.4 µM
TGI (T-47D breast): > 100 µM
TGI (K-562 leukemia): 36.1 µM
TGI (SF-539 CNS): 17.4 µM
TGI (SF-268 CNS): 52.5 µM
TGI (SF-295 CNS): > 100 µM
TGI (KM12 colon): 71.7 µM
TGI (HCC-2998 colon): 45.7 µM
TGI (CAKI-1 renal): 87 µM
TGI (DU-145 prostate): > 100 µM
TGI (HT29 colon): 63.6 µM
TGI (COLO 205 colon): 32 µM
TGI (HOP-62 NSCLC): > 100 µM
TGI (UACC-62 melanoma): 2910 nM
TGI (NCI/ADR-RES ovarian): > 100 µM
TGI (HOP-92 NSCLC): 44 µM
TGI (HCT-15 colon): > 100 µM
TGI (PC-3 prostate): 52.7 µM
TGI (NCI-H460 lung): > 100 µM
TGI (M14 melanoma): > 100 µM
TGI (OVCAR-4 ovarian): 69.5 µM
TGI (UO-31 renal): 67.3 µM
TGI (OVCAR-5 ovarian): > 100 µM
TGI (A498 renal): 73.2 µM
TGI (SK-MEL-2 melanoma): 70.7 µM
TGI (OVCAR-3 ovarian): 54.9 µM
TGI (A549 NSCLC): > 100 µM
TGI (SK-MEL-28 melanoma): 83.4 µM
TGI (MALME-3M melanoma): 67.4 µM
TGI (MCF7 breast): 45.8 µM
TGI (HL-60(TB) leukemia): > 100 µM
TGI (U251 CNS): 68.5 µM
TGI (RPMI-8226 leukemia): 49.2 µM
TGI (BT-549 breast): 95.1 µM
TGI (UACC-257 melanoma): > 100 µM
TGI (CCRF-CEM leukemia): 32.9 µM
TGI (HCT-116 colon): > 100 µM
TGI (OVCAR-8 ovarian): > 100 µM
TGI (SR leukemia): 21 µM
TGI (LOX IMVI melanoma): 41.5 µM
TGI (SNB-75 CNS): 45.1 µM
TGI (EKVX NSCLC): 87.9 µM
TGI (ACHN renal): > 100 µM
TGI (MDA-MB-231 breast): 3.32 µM
TGI (NCI-H226 lung): 5.25 µM
TGI (RXF 393 renal): 49 µM
TGI (NCI-H23 lung): > 100 µM
TGI (MOLT-4 leukemia): 4.58 µM
TGI (NCI-H522 lung): 63.5 µM
TGI (SN12C renal): 3.43 µM
TGI (786-0 renal): > 100 µM
TGI (MDA-N): 69 µM
TGI (TK-10 renal): 94.2 µM
TGI (IGROV1 ovarian): 72.5 µM
TGI (SNB-19 CNS): > 100 µM
TGI (SK-MEL-5 melanoma): 50.1 µM
